Series [1] concerns biosimilar AVASTIN®. Description: Viscosity of aqueous solutions of biosimilar AVASTIN® with viscosity-lowering agents. It is filed as physicochemical. How it is done:
(§1) (unless otherwise indicated).
The protein was formulated to contain either 0.25 M phosphate buffer or 0.25 M CSAL.
Subsequently, the appropriate amount of viscosity-lowering agent was added to result in a final viscosity-lowering agent concentration of 0.15-0.35 M upon reconstitution.
The viscosity-lowering agent(s) were added in an amount sufficient to give concentration upon reconstitution as specified below. In cases of combinations of agents, the concentration of each component is 0.15 M. The protein solutions were then freeze-dried.

The test system of series [2] is HERCEPTIN®. The series is described as follows: Viscosity of aqueous solutions of HERCEPTIN® with viscosity-lowering agents. It is filed as physicochemical. The following applies: […] agent, 25° C.
Description: All viscosities of well-mixed aqueous mAb solutions were measured using either a mVROC microfluidic viscometer (RheoSense) or a DV2T cone and plate viscometer (Brookfield; “C & P”) after a 5 minute equilibration at 25° C. (unless otherwise indicated). The mVROC viscometer was equipped with an “A” or “B” chip, each manufactured with a 50 micron channel. Typically, 0.10 mL of protein solution was back-loaded into a gastight microlab instrument syringe (Hamilton; 100 μL), affixed to the chip, and measured at multiple flow rates, approximately 20%, 40%, and 60% of the maximum pressure for each chip. […] An average absolute viscosity and standard deviation was then calculated from at least these three measurements. The C & P viscometer was equipped with a CPE40 or CPE52 spindle (cone angle of 0.8° and 3.0°, respectively) and 0.50 mL samples were measured at multiple shear rates between 2 and 400 s^−1. Specifically, samples were measured for 30 seconds each at 22.58, 24.38, 26.25, 28.13, 30, 31.88, 45, 67.5, 90, 112.5, 135, 157.5, 180, 202.5, 247, 270, 292.5, 315, 337.5, 360, 382, 400 s^−1, starting at a shear rate that gave at least 10% torque, and continuing until instrument torque reached 100%. An extrapolated zero-shear viscosity was then determined from a plot of dynamic viscosity versus shear rate for the samples measured on a DV2T cone and plate viscometer. The extrapolated zero-shear viscosities reported are the average and standard deviation of at least three measurements.
(§2) Viscosities were measured using a RheoSense mVROC microfluidic viscometer equipped with an “A” or “B” chip.
Viscosities reported were measured on a RheoSense mVROC microfluidic viscometer.
Series [3] concerns TYSABRI®. Description: Viscosity of aqueous solutions of TYSABRI® with viscosity-lowering agents. It is filed as physicochemical. The conditions noted are these: […] agent, 25° C.
Description: All viscosities of well-mixed aqueous mAb solutions were measured using either a mVROC microfluidic viscometer (RheoSense) or a DV2T cone and plate viscometer (Brookfield; “C & P”) after a 5 minute equilibration at 25° C. […] The mVROC viscometer was equipped with an “A” or “B” chip, each manufactured with a 50 micron channel. Typically, 0.10 mL of protein solution was back-loaded into a gastight microlab instrument syringe (Hamilton; 100 μL), affixed to the chip, and measured at multiple flow rates, approximately 20%, 40%, and 60% of the maximum pressure for each chip. […] An average absolute viscosity and standard deviation was then calculated from at least these three measurements. The C & P viscometer was equipped with a CPE40 or CPE52 spindle (cone angle of 0.8° and 3.0°, respectively) and 0.50 mL samples were measured at multiple shear rates between 2 and 400 s^−1. Specifically, samples were measured for 30 seconds each at 22.58, 24.38, 26.25, 28.13, 30, 31.88, 45, 67.5, 90, 112.5, 135, 157.5, 180, 202.5, 247, 270, 292.5, 315, 337.5, 360, 382, 400 s^−1, starting at a shear rate that gave at least 10% torque, and continuing until instrument torque reached 100%. An extrapolated zero-shear viscosity was then determined from a plot of dynamic viscosity versus shear rate for the samples measured on a DV2T cone and plate viscometer. The extrapolated zero-shear viscosities reported are the average and standard deviation of at least three measurements.
as §2
(§3) Subsequently, the aqueous drug product was purified, buffer exchanged, concentrated, dried, reconstituted, and analyzed as described in the same manner. Viscosities reported were measured on a RheoSense mVROC microfluidic viscometer.
Series [4] deals with biosimilar ERBITUX®. The series is described as follows: Viscosity of aqueous solutions of biosimilar ERBITUX® with viscosity-lowering agents. The conditions noted are these: 25° C.
Description: All viscosities of well-mixed aqueous mAb solutions were measured using either a mVROC microfluidic viscometer (RheoSense) or a DV2T cone and plate viscometer (Brookfield; “C & P”) after a 5 minute equilibration at 25° C. (unless otherwise indicated). The mVROC viscometer was equipped with an “A” or “B” chip, each manufactured with a 50 micron channel. Typically, 0.10 mL of protein solution was back-loaded into a gastight microlab instrument syringe (Hamilton; 100 μL), affixed to the chip, and measured at multiple flow rates, approximately 20%, 40%, and 60% of the maximum pressure for each chip. […] An average absolute viscosity and standard deviation was then calculated from at least these three measurements. The C & P viscometer was equipped with a CPE40 or CPE52 spindle (cone angle of 0.8° and 3.0°, respectively) and 0.50 mL samples were measured at multiple shear rates between 2 and 400 s^−1. […] An extrapolated zero-shear viscosity was then determined from a plot of dynamic viscosity versus shear rate for the samples measured on a DV2T cone and plate viscometer. The extrapolated zero-shear viscosities reported are the average and standard deviation of at least three measurements.
First, Polysorbate 80 was removed using DETERGENT-OUT® TWEEN® Medi Columns (G-Biosciences). […] The collected protein solution was freeze-dried. The dried protein cakes, containing protein and buffer salts or agent, were reconstituted to a final volume of 0.15-1.3 mL. […] Reported protein concentrations represent the range of all protein samples included in each Table or Figure. Specifically, reported values are the median plus or minus half the range. Extrapolated zero-shear using an experimentally determined extinction coefficient of 1.4 L/g·cm and viscosities reported were measured on a DV2T cone and plate viscometer.
The final concentration of CSAL upon reconstitution in an aqueous CSAL solution ranged from 0.25 M to 0.50 M.
Specifically, 20 mM solutions of the viscosity-lowering agents of interest were used for buffer exchange, and the lyophilized cakes were reconstituted to 0.25 M of each viscosity-lowering agent. […] The sample was first aliquoted. […] The dried protein cakes, containing protein and viscosity-lowering agent (and a negligible amount of buffer salts) were reconstituted to a final volume of approximately 0.10 mL and viscosity-lowering agent concentration as previously described.
First, Polysorbate was removed from the commercially obtained mAb solutions.
Specifically, 20 mM solutions of the salts of interest were used for buffer exchange, and the lyophilized cakes were reconstituted to contain 0.25 M of each agent. Viscosities were measured using either a RheoSense mVROC microfluidic viscometer equipped with an “A” or “B” chip or a DV2T cone and plate viscometer.
as §3
The subject of series [5] is biosimilar RITUXAN®. The series is described as follows: Viscosity of aqueous solutions of biosimilar RITUXAN® with viscosity-lowering agents.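 Further: absolute viscosity of aqueous antibody solutions determined by microfluidic viscometry (mVROC chip, 50 micron channel) at several flow rates after 5 min equilibration, mean of at least three readings.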 The conditions noted are these: 25° C.
Description: All viscosities of well-mixed aqueous mAb solutions were measured using either a mVROC microfluidic viscometer (RheoSense) or a DV2T cone and plate viscometer (Brookfield; “C & P”) after a 5 minute equilibration at 25° C. […] The mVROC viscometer was equipped with an “A” or “B” chip, each manufactured with a 50 micron channel. Typically, 0.10 mL of protein solution was back-loaded into a gastight microlab instrument syringe (Hamilton; 100 μL), affixed to the chip, and measured at multiple flow rates, approximately 20%, 40%, and 60% of the maximum pressure for each chip. […] An average absolute viscosity and standard deviation was then calculated from at least these three measurements. The C & P viscometer was equipped with a CPE40 or CPE52 spindle (cone angle of 0.8° and 3.0°, respectively) and 0.50 mL samples were measured at multiple shear rates between 2 and 400 s^−1. […] An extrapolated zero-shear viscosity was then determined from a plot of dynamic viscosity versus shear rate for the samples measured on a DV2T cone and plate viscometer. The extrapolated zero-shear viscosities reported are the average and standard deviation of at least three measurements.
as §2
Series [6] has as its system REMICADE®. Description: Viscosity of aqueous solutions of […]® with viscosity-lowering agents. Type of series: physicochemical. The following applies: for Viscosity: 25° C. On the procedure: as §1
An extrapolated zero-shear viscosity was determined from a plot of absolute viscosity versus shear rate.
Following reconstitution, the viscosity of each solution was measured using the microfluidic viscometer as described in previous examples. The solutions were then back-loaded into 1 mL BD insulin syringes with 27, 29, or 31 gauge fixed needles. The force required to extrude the concentrated […]® solutions was then measured using an Instron at a rate of displacement equivalent to a fluid flow rate of 3 mL/min. The expelled solution was collected from the syringe and analyzed by size-exclusion chromatography.

The mark [7] stands for this setting: 202 ± 2 mg/mL RITUXAN, 0.25M agent, pH 7.0.

20 compounds from patent US9925263B2, “Liquid pharmaceutical formulations for injection comprising procaine and uses thereof” (EAGLE BIOLOGICS, INC., priority 2013, dated 2018) can be followed below.

Structures can show the parent of a compound that is named as a salt.

With `O=C([O-])CCCC[C@@H]1SC[C@@H]2NC(=O)N[C@@H]21.[Na+]` [Biotin-Na], the Viscosity in series [1] (189 mg/mL mAb, agent […], 25° C.) is 45.1 ± 0.9 cP; in series [2] (230 mg/mL HERCEPTIN), 69.9 ± 2.3 cP; in series [3] (233 mg/mL TYSABRI), 75.8 ± 0.4 cP.
On to `CC1(C)C2CCC1(CS(=O)(=O)O)C(=O)C2` (centres unmarked) [CSA sodium salt, Camphorsulfonic acid], for which the Viscosity stood at 55.7 ± 0.2 cP in series [1] (200 ± 5 mg/mL mAb, pH 7.0, 25° C., [Salt] 0.25 M of anion, C & P viscometer); 393 ± 14 cP in series [4] (222 ± 5 mg/mL mAb, pH 7.0, 0.25M agent); 76.1 ± 1.3 in series [5] (setting [7]). Further, the “Fold Reduction” value in series [4] (vs phosphate buffer, 222 ± 5 mg/mL mAb, pH 7.0, 0.25M agent) was 2.9 fold.
As for `CO/N=C(\C(=O)N[C@@H]1C(=O)N2C(C(=O)O)=C(CSc3nc(=O)c(=O)[nH]n3C)CS[C@H]12)c1csc(N)n1` [Ceftriaxone sodium salt, reference compound], the Viscosity turned out to be 301 ± 5 cP in series [1] (198 mg/mL mAb, agent […], 25° C.); 120 ± 2 cP in series [4] (190 mg/mL mAb, […] agent); 198 ± 17 cP in series [5] (222 mg/mL mAb, […] agent).
As for `CCN(CC)CCCC(C)Nc1ccnc2cc(Cl)ccc12` (centres unmarked) [Chloroquine Phosphate, reference compound], the Viscosity worked out at 27.9 ± 0.6 cP in series [1] (200 mg/mL mAb, agent 0.10M, 25° C.); 58.6 ± 1.6 cP in series [1] (219 mg/mL mAb, agent 0.10M, 25° C.); 71.8 ± 0.9 cP in series [1] (228 mg/mL mAb, agent 0.10M, 25° C.); 37.4 ± 0.9 cP in series [4] (179 mg/mL mAb, 0.10M agent); 54.8 ± 0.2 cP in series [4] (199 mg/mL mAb, 0.10M agent); 67.1 ± 1.1 cP in series [5] (210 mg/mL mAb, 0.10M agent).
`CN/C(=N/CCSCc1nc[nH]c1C)NC#N` [Cimetidine HCl, reference compound]: the Viscosity in series [1] (203 mg/mL mAb, agent […], 25° C.) is given as 53.8 ± 2.4 cP; in series [4] (183 mg/mL mAb, […] agent), 19.7 ± 0.2 cP; in series [5] (215 mg/mL mAb, […] agent), 49.5 ± 1.2 cP.
Regarding `CN1C2CCCC1CC(NC(=O)c1nn(C)c3ccccc13)C2` (centres unmarked) [Granisetron HCl, reference compound], the Viscosity worked out at 37.9 ± 0.6 cP in series [1] (168 mg/mL mAb, agent […], 25° C.); 308 ± 34 cP in series [1] (237 mg/mL mAb, agent […], 25° C.); 23.0 ± 0.2 cP in series [4] (180 mg/mL mAb, […] agent); 51.2 ± 0.8 cP in series [5] (204 mg/mL mAb, […] agent).
As for `CC[C@@H](C(N)=O)N1CCCC1=O` [Levetiracetam, reference compound], the Viscosity in series [4] (176 mg/mL mAb, […] agent) is recorded as 103 ± 3 cP; in series [4] (199 mg/mL mAb, […] agent) it was 178 ± 2 cP; in series [5] (205 mg/mL mAb, […] agent), 130 ± 2 cP.
Take `CC1(C)S[C@@H]2[C@H](NC(=O)Cc3ccccc3)C(=O)N2[C@H]1C(=O)[O-].[Na+]` [Penicillin G sodium salt, reference compound]: the Viscosity turned out to be 82.1 ± 3.6 cP in series [4] (178 mg/mL mAb, […] agent) and 114 ± 7 cP in series [5] (207 mg/mL mAb, […] agent).
Take `CCN(CC)CCOC(=O)c1ccc(N)cc1` [Procaine HCl, reference compound]: the Viscosity in series [1] (188 mg/mL mAb, agent […], 25° C.) is 40.8 ± 0.9 cP; in series [1] (222 mg/mL mAb, agent […], 25° C.), 65.8 ± 0.8 cP; in series [6] (174 mg/mL REMICADE, […] agent), 23.4 ± 0.2 cP; in series [2] (222 mg/mL HERCEPTIN), 41.8 ± 0.6 cP; in series [3] (228 mg/mL TYSABRI), 45.1 ± 1.5 cP; in series [4] (230 mg/mL mAb, […] agent), 35.9 ± 0.3 cP. Also, the Viscosity stood at 33.4 ± 1.2 cP in series [5] (195 mg/mL mAb, […] agent) and 46.2 ± 1.1 cP in series [5] (222 mg/mL mAb, […] agent).
For `CN1[C@@H]2C[C@@H](OC(=O)[C@H](CO)c3ccccc3)C[C@H]1[C@@H]1O[C@@H]12` [Scopolamine HBr, reference compound], the Viscosity worked out at 35.3 ± 1.1 cP in series [1] (210 mg/mL mAb, agent […], 25° C.); 64.0 ± 0.8 cP in series [1] (223 mg/mL mAb, agent […], 25° C.); 87.8 ± 1.5 cP in series [1] (238 mg/mL mAb, agent […], 25° C.); 23.4 ± 0.6 cP in series [4] (173 mg/mL mAb, […] agent); 42.3 ± 1.0 cP in series [5] (197 mg/mL mAb, […] agent).
Take `O=P1([O-])OP(=O)([O-])OP(=O)([O-])O1.[Na+].[Na+].[Na+]` [Trimetaphosphate-3Na]: the Viscosity is 121 ± 6 cP in series [1] (211 mg/mL mAb, agent […], 25° C.) and 126 ± 3.3 cP in series [5] (199 mg/mL mAb, […] agent).
With CSA-1-o-tolybiguanide, the Viscosity in series [1] (228 mg/mL mAb, agent […], 25° C.) is recorded as 121 ± 1 cP; in series [5] (190 mg/mL mAb, […] agent) it was 40.4 ± 1.9 cP.
With CSA-Na-Creatinine, the Viscosity in series [1] (202 mg/mL mAb, agent […], 25° C.) worked out at 38.4 ± 0.9 cP; in series [5] (190 mg/mL mAb, 0.3M agent) it was 33.3 ± 1.1 cP.
As to CSA-Na-Ornidazole, the Viscosity in series [2] (232 mg/mL HERCEPTIN) is reported as 60.1 ± 0.6 cP; in series [5] (188 mg/mL mAb, […] agent) it was 40.7 ± 0.5 cP; in series [5] (242 mg/mL mAb, […] agent), 63.0 ± 3.5 cP.
For CSA-Na-aminocyclohexane carboxylic acid, the Viscosity in series [1] (225 mg/mL mAb, agent […], 25° C.) is given as 69.2 ± 3.7 cP; in series [5] (191 mg/mL mAb, […] agent), 61.3 ± 2.5 cP.
With CSA-Tris, the Viscosity in series [1] (197 mg/mL mAb, agent […], 25° C.) was determined as 50 ± 1 cP; in series [1] (206 mg/mL mAb, agent […], 25° C.), 64.4 ± 1.4 cP; in series [5] (191 mg/mL mAb, […] agent), 59.1 ± 0.7 cP.
For “Colistin sulfate salt [reference compound]”, the Viscosity in series [1] (240 mg/mL mAb, agent […], 25° C.) came out at 261 ± 58 cP; in series [4] (203 mg/mL mAb, […] agent), 138 ± 4 cP; in series [5] (230 mg/mL mAb, […] agent) it was 228 ± 19 cP.
As to Ethane disulfonate-diTris-2Na, the Viscosity is reported as more than 150 cP in series [1] (219 mg/mL mAb, […] agent, pH 7.0, 25° C., microfluidic) and 80.3 ± 16.0 cP in series [5] (191 mg/mL mAb, […] agent).
Turning to HEPES-Tris, the Viscosity in series [1] (214 mg/mL mAb, agent […], 25° C.) is given as 90.5 ± 1.8 cP; in series [5] (191 mg/mL mAb, […] agent) it was 50.0 ± 3.8 cP.
With “sulfosalicylic acid di-arginine [Sulfosalicylic acid diarginine]”, the Viscosity is on record as 81.6 ± 1.7 cP in series [1] (228 ± 5 mg/mL mAb, agent […], 25° C., pH 7.0); 27.1 ± 0.3 cP in series [6] (166 ± 4 mg/mL REMICADE, 0.25M agent, pH 7.0); 55.9 ± 1.8 cP in series [6] (222 ± 6 mg/mL REMICADE, 0.25M agent, pH 7.0); 68.3 ± 0.8 in series [5] (220 mg/mL RITUXAN (footnote *), 0.25M agent, pH 7.0); 44.1 ± 0.1 in series [5] (setting [7]). Also, the Viscosity reduction entry in series [6] (0.25M agent vs PB, Table 17) is “about 29 fold”.
